“And” between values parts separate entries of the source, which are not always exact repeats. Equal entries are not always repeated.
What was measured:
Hannover Wistar rats = assay: Two-week subcutaneous (SC) injection study in rats; assay type: in vivo
Description: In a separate study, Hannover Wistar rats (n=12/sex/dose group) received daily SC injections of a solution of 30 mg/mL of 25HC3S sodium salt in vehicle (250 mg/mL hydroxypropyl-β-cyclodextrin in 10 mM sodium phosphate buffer in sterile water) for 2 weeks. Dose levels of 0 (vehicle), 15, 45 and 150 mg/kg of 25HC3S sodium salt were administered in dose volumes of 5.0, 0.5, 1.5 and 5.0 mL/kg. Following 14 days of dose administration, all rats were euthanized and necropsied

Beagle dogs = assay: Two-week SC injection study in dogs; assay type: in vivo
Description: In a separate study, Beagle dogs (n=4/sex/dose group) received daily SC injections for 2 weeks. The solution that was tested included 30 mg/mL of 25HC3 S sodium salt in vehicle (250 mg/mL hydroxypropyl-β-cyclodextrin in 10 mM sodium phosphate buffer). Dose levels of 0 (vehicle), 3, 10 and 30 mg/kg of 25HC3S were administered in dose volumes of 1.0, 0.1, 0.33 and 1.0 mL/kg. Following 14 days of dose administration, all dogs were euthanized and necropsied.

[1] = Infusion compatibility: 25HC3S diluted in 5% dextrose infusion bag and eluted through infusion sets (potency, osmolality, pH, appearance); assay type: physicochemical; conditions: for 24 Hours at 2-8° C. Concentration / 24 Hours at 2-8° C. Osmolality / 24 Hours at 2-8° C. pH / 24 Hours at 25° C. % Remaining Compared to T = 0 / 24 Hours at 25° C. Concentration / 24 Hours at 25° C. Osmolality / 24 Hours at 25° C. pH / T = 0 Conc. / T = 0 Osmolality / T = 0 pH: 5% dextrose bag; for After Storage in Infusion Bag and Collection from Infusion Set % Remaining Compared to T = 0 / After Storage in Infusion Bag and Collection from Infusion Set Concentration / After Storage in Infusion Bag and Collection from Infusion Set Osmolality / After Storage in Infusion Bag and Collection from Infusion Set pH: 5% dextrose, approx. 0.28 mg/mL, bag 24 h at 2-8° C.
Description: A physical and chemical compatibility study was conducted at a 30 mg, 48 mg and 300 mg 25HC3S dose in 5% dextrose and 0.9% sodium chloride infusion bags. Descriptions of the two kinds of infusion sets tested with 25HC3S product diluted in 5% dextrose and 0.9% sodium chloride are listed in Table 15. The tubing in catalog number 2H8480 infusion set was composed of polyvinylchloride (PVC), while the tubing in catalog number 2C8858 was polyethylene lined except for a short pump segment (approximately 12 inches) which was composed of PVC.
25HC3S for Injection and Vehicle for 25HC3S for Injection, that had been stored at 2-8° C. for approximately 16 months, were used for the compatibility study. After constitution, 30 mg (1.0 mL of constituted product), 48 mg (1.6 mL of constituted product) or 300 mg (10 mL of constituted product) were added to 100 mL infusion bags of 5% dextrose and 0.9% sodium chloride, mixed thoroughly, and stored for 24 hours at room temperature and at 2-8° C. […] Taking into consideration the overfill per infusion bag and the additional volume introduced by adding the constituted 25HC3S product to each bag, the expected concentrations of 25HC3S were 0.28 mg/mL, 0.44 mg/mL, and 2.56 mg/mL in the infusion bags. Two kinds of infusion sets were then attached to the drug containing infusion bags, and the entire contents were eluted through the infusion sets at approximately 50 mL/hour at room temperature. Samples were collected from the 25HC3S prepared infusion bags at T=0 and at 24 hours, and from the total eluent passed through the infusion sets, and tested for 25HC3S concentration using HPLC. Solution visual appearance, osmolality (using method USP<785>), and pH (using method USP<791>) were also measured on the collected samples.

## C[C@H](CCCC(C)(C)O)[C@H]1CC[C@H]2[C@@H]3CC=C4C[C@@H](OS(=O)(=O)[O-])CC[C@]4(C)[C@H]3CC[C@]12C.[Na+] [Formulation 25HC3S, 5-cholesten-3, 25-diol, 3-sulfate]
Hannover Wistar rats; male and female rats, 150 mg/kg daily SC, 2 weeks
  higher mean liver weights compared to controls: 10%
Hannover Wistar rats; male rats, 150 mg/kg daily SC, after 2 weeks
  lower mean serum cholesterol compared to vehicle controls: 22%
Hannover Wistar rats; rats, 150 mg/kg daily SC, 2 weeks, vs vehicle controls
  Cytoplasmic vacuolation of the proximal tubules of the kidneys: severity was similar in vehicle control and rats
Hannover Wistar rats; rats, daily SC 2 weeks, compared to vehicle (FIG. 1A)
  collagen degeneration and hemorrhage at the injection sites: tended to be lower
Hannover Wistar rats; rats, daily SC 2 weeks, seen in vehicle controls and drug-treated rats
  alveolar macrophages in the lungs: minimal increase
Beagle dogs; daily SC 2 weeks, compared to vehicle only (FIG. 1C)
  swelling at the site of injection: markedly decreased
Beagle dogs; daily SC 3, 10, 30 mg/kg, 2 weeks (FIG. 1B)
  fibroplasia, hemorrhage, inflammation and necrosis in injection sites: incidence and severity: generally higher in vehicle controls compared to drug-treated dogs
[1]; approx. 0.28 mg/mL 25HC3S
  24 Hours at 2-8° C. Concentration: 0.280 mg/mL
  24 Hours at 2-8° C. Osmolality: 250 mmol/kg and 253 mmol/kg
  24 Hours at 2-8° C. pH: 7.09 and 7.04
  24 Hours at 25° C. % Remaining Compared to T = 0: (100.0%)
  24 Hours at 25° C. Concentration: 0.276 mg/mL and 0.277 mg/mL
  24 Hours at 25° C. Osmolality: 252 mmol/kg and 249 mmol/kg
  24 Hours at 25° C. pH: 7.12 and 7.05
  T = 0 Conc.: 0.276 mg/mL and 0.277 mg/mL and 0.280 mg/mL and 0.279 mg/mL
  T = 0 Osmolality: 247 mmol/kg and 250 mmol/kg and 251 mmol/kg
  T = 0 pH: 7.09 and 7.03 and 7.10 and 7.04
[1]; approx. 0.44 mg/mL 25HC3S
  24 Hours at 2-8° C. Concentration: 0.438 mg/mL and 0.440 mg/mL
  24 Hours at 2-8° C. Osmolality: 254 mmol/kg and 257 mmol/kg
  24 Hours at 2-8° C. pH: 6.96 and 6.93
  24 Hours at 25° C. % Remaining Compared to T = 0: (100.0%)
  24 Hours at 25° C. Concentration: 0.447 mg/mL and 0.442 mg/mL
  24 Hours at 25° C. Osmolality: 256 mmol/kg and 253 mmol/kg
  24 Hours at 25° C. pH: 6.91 and 6.90
  T = 0 Conc.: 0.447 mg/mL and 0.442 mg/mL and 0.439 mg/mL
  T = 0 Osmolality: 255 mmol/kg and 254 mmol/kg and 256 mmol/kg
  T = 0 pH: 6.83 and 6.81 and 6.82 and 6.88
[1]; approx. 2.56 mg/mL 25HC3S
  24 Hours at 2-8° C. Concentration: 2.550 mg/mL and 2.530 mg/mL
  24 Hours at 2-8° C. Osmolality: 246 mmol/kg and 251 mmol/kg
  24 Hours at 2-8° C. pH: 6.11 and 6.14
  24 Hours at 25° C. Concentration: 2.470 mg/mL and 2.520 mg/mL
  24 Hours at 25° C. Osmolality: 257 mmol/kg and 250 mmol/kg
  24 Hours at 25° C. pH: 6.12 and 6.06
  T = 0 Conc.: 2.500 mg/mL and 2.510 mg/mL and 2.530 mg/mL and 2.525 mg/mL
  T = 0 Osmolality: 258 mmol/kg and 247 mmol/kg
  T = 0 pH: 6.04 and 6.12 and 6.29 and 6.26
[1]; Baxter 2C8858
  After Storage in Infusion Bag and Collection from Infusion Set % Remaining Compared to T = 0: (100.4%)
  After Storage in Infusion Bag and Collection from Infusion Set Concentration: 0.280 mg/mL
  After Storage in Infusion Bag and Collection from Infusion Set Osmolality: 252 mmol/kg
  After Storage in Infusion Bag and Collection from Infusion Set pH: 6.99
[1]; Baxter 2H8480
  After Storage in Infusion Bag and Collection from Infusion Set % Remaining Compared to T = 0: (100.0%)
  After Storage in Infusion Bag and Collection from Infusion Set Concentration: 0.280 mg/mL
  After Storage in Infusion Bag and Collection from Infusion Set Osmolality: 251 mmol/kg
  After Storage in Infusion Bag and Collection from Infusion Set pH: 6.95

Reference: patent US20190374554A1, “USE OF OXYGENATED CHOLESTEROL SULFATES (OCS) TO TREAT INFLAMMATORY SKIN DISEASE AND SKIN LESIONS” (Virginia Commonwealth University, priority 2016, published 2019)
